PubChem BioAssay AID248 (DTP/NCI, 2004)
Values joined by “and” are separate entries in the source; they are usually repeats but may differ in a detail not shown here. Equal entries are not always repeated. Inconclusive results and toxic doses are left out.

Test system: L1210 leukemia ip in BDF1 mice, survival T/C
Assay: NCI In Vivo Anticancer Drug Screen. Data for tumor model L1210 Leukemia (intraperitoneal) in B6D2F1 (BDF1) mice
Settings: endpoint: mean survival time, higher = longer survival
Procedure, shortened: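 In this screen, tumor-bearing mice given compound are compared to those given vehicle, and their survival values are reported as a treated-to-control quotient.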

[1] = dose: 100.0 mg/kg/injection, schedule: Q04DX003 (ip), vehicle: saline
[2] = dose: 200.0 mg/kg/injection, schedule: Q04DX003 (ip), vehicle: saline
[3] = dose: 400.0 mg/kg/injection, schedule: Q04DX003 (ip), vehicle: saline
[4] = dose: 100.0 mg/kg/injection, schedule: Q01DX001 (ip), vehicle: carboxymethylcellulose (CMC)
[5] = dose: 100.0 mg/kg/injection, schedule: Q01DX001 (ip), vehicle: Klucel (hydroxypropylcellulose) (HPC)
[6] = dose: 200.0 mg/kg/injection, schedule: Q01DX001 (ip), vehicle: Klucel (hydroxypropylcellulose) (HPC)
[7] = dose: 400.0 mg/kg/injection, schedule: Q01DX001 (ip), vehicle: Klucel (hydroxypropylcellulose) (HPC)
[8] = dose: 100.0 mg/kg/injection, schedule: Q04DX003 (ip), vehicle: saline with Tween-80
[9] = dose: 50.0 mg/kg/injection, schedule: Q01DX001 (ip), vehicle: saline
[10] = dose: 200.0 mg/kg/injection, schedule: Q04DX003 (ip), vehicle: saline with Tween-80
[11] = dose: 400.0 mg/kg/injection, schedule: Q04DX003 (ip), vehicle: saline with Tween-80
[12] = dose: 100.0 mg/kg/injection, schedule: Q01DX009 (ip), vehicle: saline with Tween-80

For CC1NC1C (stereo not drawn), the T/C (dose: 45.0 mg/kg/injection, schedule: Q04DX003 (ip), vehicle: saline) was 102 % of control, the T/C (dose: 90.0 mg/kg/injection, schedule: Q04DX003 (ip), vehicle: saline) was 98 % of control and the T/C (dose: 100.0 mg/kg/injection, schedule: Q01DX009 (ip), vehicle: saline) was 103 % of control. For the same compound, the T/C [1] was 108 % of control, the T/C (dose: 180.0 mg/kg/injection, schedule: Q04DX003 (ip), vehicle: saline) was 107 % of control and the T/C (dose: 200.0 mg/kg/injection, schedule: Q01DX009 (ip), vehicle: saline) was 108 % of control. The T/C [2] was 114 % of control, the T/C (dose: 400.0 mg/kg/injection, schedule: Q01DX009 (ip), vehicle: saline) was 103 % of control and the T/C [3] was 119 % of control.
In the case of COC1/C=C/OC2(C)Oc3c(C)c(O)c4c(O)c(c(/C=N/N5CCN(Cc6ccccc6)CC5)c(O)c4c3C2=O)NC(=O)C(C)=C/C=C/C(C)C(O)C(C)C(O)C(C)C(OC(C)=O)C1C (stereo not drawn), the T/C (dose: 3.13 mg/kg/injection, schedule: Q01DX009 (ip), vehicle: Klucel (hydroxypropylcellulose) (HPC)) was 91 % of control, the T/C (dose: 6.25 mg/kg/injection, schedule: Q01DX009 (ip), vehicle: Klucel (hydroxypropylcellulose) (HPC)) was 100 % of control and the T/C (dose: 12.5 mg/kg/injection, schedule: Q01DX009 (ip), vehicle: Klucel (hydroxypropylcellulose) (HPC)) was 91 % of control. For the same compound, the T/C (dose: 25.0 mg/kg/injection, schedule: Q01DX009 (ip), vehicle: Klucel (hydroxypropylcellulose) (HPC)) was 97 % of control and the T/C (dose: 50.0 mg/kg/injection, schedule: Q01DX009 (ip), vehicle: Klucel (hydroxypropylcellulose) (HPC)) was 95 % of control and 110 % of control.
With CC(CC(=O)O)C(C(=O)O)C(=O)O (stereo not drawn) the T/C (dose: 25.0 mg/kg/injection, schedule: Q01DX009 (ip), vehicle: water) was 110 % of control, the T/C (dose: 50.0 mg/kg/injection, schedule: Q01DX009 (ip), vehicle: water) was 108 % of control and the T/C (dose: 100.0 mg/kg/injection, schedule: Q01DX009 (ip), vehicle: water) was 106 % of control. For the same compound, the T/C (dose: 200.0 mg/kg/injection, schedule: Q01DX009 (ip), vehicle: water) was 101 % of control.
For CC(/C=N/NC(N)=S)=N\NC(N)=S, the T/C (dose: 12.5 mg/kg/injection, schedule: Q01DX Z (oral), vehicle: carboxymethylcellulose (CMC)) was 106 % of control, the T/C (dose: 25.0 mg/kg/injection, schedule: Q01DX Z (oral), vehicle: carboxymethylcellulose (CMC)) was 113 % of control and the T/C (dose: 50.0 mg/kg/injection, schedule: Q01DX001 (ip), vehicle: carboxymethylcellulose (CMC)) was 97 % of control. The T/C (dose: 50.0 mg/kg/injection, schedule: Q01DX Z (ip), vehicle: carboxymethylcellulose (CMC)) was 95 % of control, the T/C (dose: 50.0 mg/kg/injection, schedule: Q01DX Z (oral), vehicle: carboxymethylcellulose (CMC)) was 113 % of control and the T/C [4] was 101 % of control. The T/C (dose: 100.0 mg/kg/injection, schedule: Q01DX Z (ip), vehicle: carboxymethylcellulose (CMC)) was 100 % of control, the T/C (dose: 100.0 mg/kg/injection, schedule: Q01DX Z (oral), vehicle: carboxymethylcellulose (CMC)) was 124 % of control and the T/C (dose: 200.0 mg/kg/injection, schedule: Q01DX001 (ip), vehicle: carboxymethylcellulose (CMC)) was 91 % of control. For the same compound, the T/C (dose: 200.0 mg/kg/injection, schedule: Q01DX Z (ip), vehicle: carboxymethylcellulose (CMC)) was 103 % of control, the T/C (dose: 400.0 mg/kg/injection, schedule: Q01DX001 (ip), vehicle: carboxymethylcellulose (CMC)) was 97 % of control and the T/C (dose: 400.0 mg/kg/injection, schedule: Q01DX Z (ip), vehicle: carboxymethylcellulose (CMC)) was 103 % of control.
For CC1(C)OB(C(B2OC(C)(C)C(C)(C)O2)=C(CCl)CCl)OC1(C)C, the T/C [5] was 101 % of control, the T/C [6] was 88 % of control and the T/C [7] was 103 % of control.
O=NN1CCN(N=O)CC1 was tested, and the T/C [4] was 94 % of control and the T/C [8] was 101 % of control.
With CC(C)=NNCCO the T/C (dose: 12.5 mg/kg/injection, schedule: Q01DX001 (ip), vehicle: saline) was 103 % of control, the T/C (dose: 25.0 mg/kg/injection, schedule: Q01DX001 (ip), vehicle: saline) was 103 % of control and the T/C [9] was 100 % of control.
For CC(C(CC(=O)c1ccccc1)c1ccccc1)[N+](=O)[O-] (stereo not drawn), the T/C [5] was 124 % of control, the T/C [8] was 98 % of control and the T/C [6] was 97 % of control. The T/C [10] was 97 % of control, the T/C [7] was 96 % of control and the T/C [11] was 92 % of control.
For O=C(CCc1ccc(C(=O)Nc2ccc(C3=NCCCN3)cc2)cc1)Nc1ccc(C2=NCCCN2)cc1, the T/C (dose: 0.37 mg/kg/injection, schedule: Q01DX Z (ip), vehicle: water) was 98 % of control, the T/C (dose: 0.75 mg/kg/injection, schedule: Q01DX Z (ip), vehicle: water) was 108 % of control and the T/C (dose: 1.0 mg/kg/injection, schedule: Q01DX Z (ip), vehicle: water) was 121 % of control. For the same compound, the T/C (dose: 4.0 mg/kg/injection, schedule: Q01DX Z (ip), vehicle: water) was 232 % of control, the T/C (dose: 8.0 mg/kg/injection, schedule: Q01DX Z (ip), vehicle: water) was 270 % of control and the T/C (dose: 25.0 mg/kg/injection, schedule: Q01DX Z (oral), vehicle: water) was 102 % of control. For the same compound, the T/C (dose: 50.0 mg/kg/injection, schedule: Q01DX Z (oral), vehicle: water) was 93 % of control, the T/C (dose: 100.0 mg/kg/injection, schedule: Q01DX Z (oral), vehicle: water) was 93 % of control and the T/C (dose: 200.0 mg/kg/injection, schedule: Q01DX Z (oral), vehicle: water) was 102 % of control.
With COC1CCC(/C(C#N)=C/C2CCC3OCOC3C2)CC1 (stereo not drawn) the T/C (dose: 100.0 mg/kg/injection, schedule: Q04DX002 (ip), vehicle: saline with Tween-80) was 101 % of control, the T/C (dose: 200.0 mg/kg/injection, schedule: Q04DX002 (ip), vehicle: saline with Tween-80) was 90 % of control and the T/C (dose: 400.0 mg/kg/injection, schedule: Q04DX002 (ip), vehicle: saline with Tween-80) was 94 % of control.
With N#CCCCCN1C(=O)c2ccccc2C1=O the T/C (dose: 50.0 mg/kg/injection, schedule: Q01DX009 (ip), vehicle: saline with Tween-80) was 94 % of control, the T/C [12] was 94 % of control and the T/C [8] was 98 % of control. The T/C [10] was 97 % of control.
In the case of O=C(O)C(c1ccccc1)P(=S)(c1ccccc1)c1ccccc1 (stereo not drawn), the T/C (dose: 75.0 mg/kg/injection, schedule: Q01DX001 (ip), vehicle: other) was 89 % of control and the T/C (dose: 150.0 mg/kg/injection, schedule: Q01DX001 (ip), vehicle: other) was 111 % of control.
With Oc1c(Br)ccc2c(O)c(Br)ccc12 the T/C [8] was 87 % of control, the T/C (dose: 118.0 mg/kg/injection, schedule: Q01DX009 (ip), vehicle: saline with Tween-80) was 107 % of control and the T/C [10] was 92 % of control. The T/C (dose: 235.0 mg/kg/injection, schedule: Q01DX009 (ip), vehicle: saline with Tween-80) was 103 % of control, the T/C [11] was 95 % of control and the T/C (dose: 470.0 mg/kg/injection, schedule: Q01DX009 (ip), vehicle: saline with Tween-80) was 103 % of control.
In the case of CN(C)C(=O)/C=C/C(=O)N(C)C, the T/C [1] was 103 % of control, the T/C [2] was 103 % of control and the T/C [3] was 108 % of control.
CN(C)c1nc(N)c(C#N)c(C#N)c1C#N was tested, and the T/C [9] was 96 % of control, the T/C (dose: 100.0 mg/kg/injection, schedule: Q01DX001 (ip), vehicle: saline) was 96 % of control and the T/C (dose: 200.0 mg/kg/injection, schedule: Q01DX001 (ip), vehicle: saline) was 100 % of control.
CC(C)(C)c1cc(C(C)(C)C)c(O)c(C(C)(C)C)c1 was tested, and the T/C (dose: 100.0 mg/kg/injection, schedule: Q01DX001 (ip), vehicle: saline with Tween-80) was 91 % of control, the T/C [12] was 92 % of control and the T/C [8] was 98 % of control. The T/C (dose: 200.0 mg/kg/injection, schedule: Q01DX001 (ip), vehicle: saline with Tween-80) was 95 % of control, the T/C (dose: 200.0 mg/kg/injection, schedule: Q01DX009 (ip), vehicle: saline with Tween-80) was 96 % of control and the T/C [10] was 98 % of control. For the same compound, the T/C (dose: 400.0 mg/kg/injection, schedule: Q01DX001 (ip), vehicle: saline with Tween-80) was 87 % of control, the T/C (dose: 400.0 mg/kg/injection, schedule: Q01DX009 (ip), vehicle: saline with Tween-80) was 93 % of control and the T/C [11] was 93 % of control.
